Drawing on patent US9416129B2, “Tricyclic substituted thiadiazine dioxide compounds as BACE inhibitors, compositions and their use” (Merck Sharp & Dohme Corp., priority 2012, dated 2016), this text covers Ki for 45 compounds.

Each structure is given as a SMILES string. pKi: −log10 of the molar value.

For assay [1], the target named is soluble human BACE1 catalytic domain (Homo sapiens (Human), UniProt P56817). Put plainly: BACE1 HTRF FRET assay. The assay is classed as biochemical. The conditions noted are these: Ki calculated from IC50 using the Cheng-Prusoff equation. The text has this: Na^+-Acetate pH 5.0; 1% Brij-35; Glycerol; Dimethyl Sulfoxide (DMSO); Recombinant human soluble BACE1 catalytic domain (>95% pure); APP Swedish mutant peptide substrate (QSY7-APP^swe-Eu): QSY7-[…]-Europium-amide.
Sequence of soluble human BACE1 catalytic domain (P56817 75-416): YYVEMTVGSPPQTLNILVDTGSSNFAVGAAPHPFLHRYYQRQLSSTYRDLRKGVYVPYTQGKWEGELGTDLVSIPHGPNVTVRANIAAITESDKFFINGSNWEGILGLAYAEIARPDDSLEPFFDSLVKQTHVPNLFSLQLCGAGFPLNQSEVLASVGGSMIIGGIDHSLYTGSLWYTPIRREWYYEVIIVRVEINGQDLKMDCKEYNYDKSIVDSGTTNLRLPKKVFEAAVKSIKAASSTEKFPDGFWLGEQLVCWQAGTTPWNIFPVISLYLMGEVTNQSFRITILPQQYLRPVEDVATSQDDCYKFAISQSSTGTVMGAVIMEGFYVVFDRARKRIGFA
A homogeneous time-resolved FRET assay can be used to determine IC50 values for inhibitors of the soluble human BACE1 catalytic domain. This assay monitors the increase of 620 nm fluorescence that resulted from BACE1 cleavage of an APPswedish APP^swe mutant peptide FRET substrate (QSY7-[…]-Europium-amide). This substrate contains an N-terminal QSY7 moiety that serves as a quencher of the C-terminal Europium fluorophore (620 nm Em). In the absence of enzyme activity, 620 nm fluorescence is low in the assay and increased linearly over 3 hours in the presence of uninhibited BACE1 enzyme Inhibition of BACE1 cleavage of the QSY7-APP^swe-Eu substrate by inhibitors is manifested as a suppression of 620 nm fluorescence.
Varying concentrations of inhibitors at 3× the final desired concentration in a volume of 10 ul are preincubated with purified human BACE1 catalytic domain (3 nM in 10 μl) for 30 minutes at 30° C. in reaction buffer containing 20 mM Na-Acetate pH 5.0, 10% glycerol, 0.1% Brij-35 and 7.5% DSMO. Reactions are initiated by addition of 10 μl of 600 nM QSY7-APP^swe-Eu substrate (200 nM final) to give a final reaction volume of […] in a 384 well Nunc HTRF plate. The reactions are incubated at 30° C. for 1.5 hours. The 620 nm fluorescence is then read on a Rubystar HTRF plate reader (BMG Labtechnologies) using a 50 millisecond delay followed by a 400 millisecond acquisition time window. Inhibitor IC50 values are derived from non-linear regression analysis of concentration response curves.

A further assay concerns the target human autoBACE-2 (Homo sapiens (Human), UniProt Q9Y5Z0). Put plainly: BACE-2 assay (BACE-HTRF, time-resolved endpoint proteolysis). It counts as biochemical. Conditions: Ki calculated from IC50 using the Cheng-Prusoff equation; read-out: BACE2 Ki. As to the method:
Inhibitor IC50s at purified human autoBACE-2 are determined in a time-resolved endpoint proteolysis assay that measures hydrolysis of the QSY7-[…]-Eu-amide FRET peptide substrate (BACE-HTRF assay). […] DMSO is present at 5% final concentration in the assay. Following laser excitation of sample wells at 320 nm, the fluorescence signal at 620 nm is collected for 400 ms following a 50 μs delay on a RUBYstar HTRF plate reader (BMG Labtechnologies). Raw RFU data is normalized to maximum (1.0 nM BACE/DMSO) and minimum (no enzyme/DMSO) RFU values. […] The Ki values are calculated from the IC50 using the Cheng-Prusoff equation.

Sequence of human autoBACE-2 (Q9Y5Z0 63-473 limits assumed): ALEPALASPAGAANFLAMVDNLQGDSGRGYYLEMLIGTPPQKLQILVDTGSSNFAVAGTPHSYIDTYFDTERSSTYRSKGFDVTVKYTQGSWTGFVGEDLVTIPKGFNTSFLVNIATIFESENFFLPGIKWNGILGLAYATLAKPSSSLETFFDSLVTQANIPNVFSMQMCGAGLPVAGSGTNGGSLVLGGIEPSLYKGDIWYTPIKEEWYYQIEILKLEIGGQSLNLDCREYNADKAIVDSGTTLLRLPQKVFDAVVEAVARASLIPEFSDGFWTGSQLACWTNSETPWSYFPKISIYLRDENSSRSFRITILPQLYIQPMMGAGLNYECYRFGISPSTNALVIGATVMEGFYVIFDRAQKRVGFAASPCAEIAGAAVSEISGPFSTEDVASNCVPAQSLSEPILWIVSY

On to `CN1C(=N)N[C@](C)(c2sc3c(-c4ccc(-c5ncco5)cc4)nccc3c2Cl)CS1(=O)=O` [Example 100], for which the values for the pKi (in assay [1]; at human autoBACE-2) were 6.94 and 6.65, respectively.

`CN1C(=N)N[C@](C)(c2sc3c(-c4ccc(-c5nccn5C)cc4)cccc3c2F)CS1(=O)=O` [Example 86]: the pKi (commonly the negative decadic logarithm of the Ki, by convention in mol/L) in assay [1] is 5.25; on human autoBACE-2 it was 5.48. Regarding `Cc1noc(-c2cccc(-c3cc(Cl)c([C@]4(C)CS(=O)(=O)N(C)C(=N)N4)s3)c2)n1` [Example 37], the pKi in assay [1] is 7.59; on human autoBACE-2, 8.34.

On to `CN1C(=N)N[C@](C)(c2sc3c(-c4ccc(-c5ncco5)cc4)cccc3c2F)CS1(=O)=O` [Example 90], for which the pKi in assay [1] is 6.98; at human autoBACE-2 it was 6.67. Turning to `CN1C(=N)N[C@](C)(c2sc3c(-c4ccc(-c5cnn(C)c5)cc4F)nccc3c2Cl)CS1(=O)=O` [Example 112], the pKi was 6.54 in assay [1] and 6.66 on human autoBACE-2. The corresponding values for `CN1C(=N)N[C@](C)(c2sc3c(-c4ccc(N5CCS(=O)(=O)CC5)cc4)cccc3c2F)CS1(=O)=O` [Example 85] are 5.19 and 5.33. `CN1C(=N)N[C@](C)(c2sc3c(-c4ccc(-c5nccs5)cc4)nccc3c2Cl)CS1(=O)=O` [Example 106]: the pKi in assay [1] is 6.57; on human autoBACE-2 it was 5.79.

Turning to `Cc1nnc(-c2cccc(-c3cc(Cl)c([C@]4(C)CS(=O)(=O)N(C)C(=N)N4)s3)c2)o1` [Example 53], the pKi in assay [1] is 6.89. Consider `CN1C(=N)N[C@](C)(c2sc(-c3cccc(-n4nccn4)c3)cc2Cl)CS1(=O)=O` [Example 63], for which the pKi was 7.52 in assay [1] and 8.33 at human autoBACE-2. For `CN1C(=N)N[C@](C)(c2sc(-c3ccc(N4CCOCC4)nc3)cc2Cl)CS1(=O)=O` [Example 66], the pKi in assay [1] is 5.23; at human autoBACE-2 it was 5.74. For `CN1C(=N)N[C@](C)(c2sc3c(-c4ccc(-n5ccnn5)cc4)nccc3c2Cl)CS1(=O)=O` [Example 104], the values for the pKi (in assay [1]; on human autoBACE-2) were 7.07 and 7.44, respectively. As for `COc1ccnc(N2CCN(c3nccc4c(Cl)c([C@]5(C)CS(=O)(=O)N(C)C(=N)N5)sc34)CC2)c1` [Example 121], the values for the pKi (in assay [1]; at human autoBACE-2) were 5.73 and 5.90, respectively. Regarding `CN1CCN(c2ccc(-c3cccc4c(F)c([C@]5(C)CS(=O)(=O)N(C)C(=N)N5)sc34)cn2)CC1` [Example 93], the results for the pKi (in assay [1]; on human autoBACE-2) were 5.42 and 5.58, respectively. The matching figures for `CN1C(=N)N[C@](C)(c2sc(-c3cccc(-n4ccnc4)n3)cc2Cl)CS1(=O)=O` [Example 68]: 6.37 and 7.11. Regarding `CN1C(=N)N[C@](C)(c2sc3c(-c4ccc(-n5nccn5)cc4)nccc3c2Cl)CS1(=O)=O` [Example 99], the values for the pKi (in assay [1]; on human autoBACE-2) were 6.65 and 6.07, respectively. The corresponding values for `CN1C(=N)N[C@](C)(c2sc3c(-c4ccc(-c5cc(C(F)(F)F)n[nH]5)cc4)nccc3c2Cl)CS1(=O)=O` [Example 98] are 6.37 and 8.17.

`CN1CCN(c2ccc(-c3cccc4c(F)c([C@]5(C)CS(=O)(=O)N(C)C(=N)N5)sc34)cc2)CC1` [Example 95]: the results for the pKi (in assay [1]; at human autoBACE-2) were 5.01 and 5.69, respectively. The corresponding values for `Cc1cnn(-c2ccc(-c3nccc4c(Cl)c([C@]5(C)CS(=O)(=O)N(C)C(=N)N5)sc34)c(F)c2)c1` [Example 119] are 6.72 and 6.38.

Consider `CN1C(=N)N[C@](C)(c2sc(-c3cncc(-c4nnco4)c3)cc2F)CS1(=O)=O` [Example 3], for which the values for the pKi (in assay [1]; on human autoBACE-2) were 8.12 and 7.59, respectively.

As to `CN1C(=N)N[C@](C)(c2sc(-c3cncc(-c4cnco4)c3)cc2Cl)CS1(=O)=O` [Example 20], the pKi is 7.92 in assay [1] and 8.05 at human autoBACE-2. With `CN1C(=N)N[C@](C)(c2sc3c(-c4ccc(-n5cccn5)nc4)cccc3c2F)CS1(=O)=O` [Example 87], the values for the pKi (in assay [1]; on human autoBACE-2) were 8.00 and 7.51, respectively. The matching figures for `CN1C(=N)N[C@](C)(c2sc3c(-c4cnc(C5CC5)nc4)nccc3c2Cl)CS1(=O)=O` [Example 78]: 6.79 and 7.64. `CN1C(=N)N[C@](C)(c2sc3c(-c4ccc(-c5ccncc5)cc4)cccc3c2F)CS1(=O)=O` [Example 84]: the pKi was 6.45 in assay [1] and 6.12 on human autoBACE-2. The matching figures for `CN1C(=N)N[C@](C)(c2sc(-c3ccc(-n4ccnn4)cc3)cc2Cl)CS1(=O)=O` [Example 71]: 5.80 and 6.18. The matching figures for `Cc1cnc(-c2ccc(-c3cccc4c(F)c([C@]5(C)CS(=O)(=O)N(C)C(=N)N5)sc34)cc2)nc1` [Example 88]: 5.04 and 5.42. The matching figures for `CN1C(=N)N[C@](C)(c2sc(-c3cccc(-c4ccno4)c3)cc2Cl)CS1(=O)=O` [Example 13]: 8.19 and 8.62. On to `CN1C(=N)N[C@](C)(c2sc(-c3ccnc(-c4cccnc4)c3)cc2F)CS1(=O)=O` [Example 74], for which the pKi was 6.70 in assay [1] and 6.91 at human autoBACE-2. The matching figures for `CN1C(=N)N[C@](C)(c2cc(-c3cccc(-c4nnco4)c3)cs2)CS1(=O)=O` [Example 19]: 7.72 and 7.28. Consider `CN1C(=N)N[C@](C)(c2sc(-c3ccnc(-c4cncnc4)c3)cc2F)CS1(=O)=O` [Example 55], for which the pKi in assay [1] was 5.90; at human autoBACE-2, 6.67.

With `Cc1nsc(C2CCN(c3nccc4c(Cl)c([C@]5(C)CS(=O)(=O)N(C)C(=N)N5)sc34)CC2)n1` [Example 122], the pKi is 6.05 in assay [1] and 6.39 on human autoBACE-2. For the compound `CN1C(=N)N[C@](C)(c2ncc(-c3cccc(-c4nnco4)c3)s2)CS1(=O)=O` [Example 27], the pKi in assay [1] is 7.86; on human autoBACE-2, 6.82. For the compound `CN1C(=N)N[C@](C)(c2sc(-c3cccc(-c4cc[nH]n4)c3)cc2F)CS1(=O)=O` [Example 4], the pKi was 7.97 in assay [1] and 9.46 at human autoBACE-2. The matching figures for `CN1C(=N)N[C@](C)(c2sc3c(-c4ccc(-c5cncs5)cc4F)nccc3c2Cl)CS1(=O)=O` [Example 113]: 6.98 and 6.60. Take `CN1C(=N)N[C@](C)(c2sc(-c3ccc(-c4ccccn4)cc3)cc2Cl)CS1(=O)=O` [Example 65]: the pKi was 5.45 in assay [1] and 5.79 at human autoBACE-2.

In the case of `CN1C(=N)N[C@](C)(c2sc(-c3cccc(N4CCS(=O)(=O)CC4)c3)cc2Cl)CS1(=O)=O` [Example 61], the pKi is 6.16 in assay [1] and 7.38 on human autoBACE-2.

Regarding `Cc1nnc(-c2cccc(-c3cc(Cl)c([C@]4(C)CS(=O)(=O)N(C)C(=N)N4)s3)c2)o1` [Example 15], the pKi on human autoBACE-2 is 8.42. For `CN1C(=N)N[C@](C)(c2sc3c(-c4ccc(-n5cccn5)cc4)nccc3c2Cl)CS1(=O)=O` [Example 102], the pKi in assay [1] was 7.52; on human autoBACE-2, 6.02.

For `CN1C(=N)N[C@](C)(c2sc(-c3cncc(-c4cnco4)c3)cc2F)CS1(=O)=O` [Example 21], the pKi in assay [1] is 7.74; at human autoBACE-2 it was 7.80.

For the compound `CN1C(=N)N[C@](C)(c2sc(-c3cncc(-c4ncco4)c3)cc2Cl)CS1(=O)=O` [Example 9], the pKi was 8.16 in assay [1] and 9.51 on human autoBACE-2. The matching figures for `Cc1noc(-c2cc(-c3cc(F)c([C@]4(C)CS(=O)(=O)N(C)C(=N)N4)s3)ccn2)n1` [Example 50]: 7.25 and 8.64. In the case of `CN1C(=N)N[C@](C)(c2sc3c(-c4ccc(-c5nccs5)cc4)cccc3c2F)CS1(=O)=O` [Example 91], the figures for the pKi (in assay [1]; on human autoBACE-2) were 6.10 and 5.87, respectively. For `CN1C(=N)N[C@](C)(c2sc(-c3cccc(-c4ccccc4)c3)cc2Cl)CS1(=O)=O` [Example 62], the pKi in assay [1] is 6.79; at human autoBACE-2, 8.80. The matching figures for `CN1C(=N)N[C@](C)(c2sc3c(-c4ccc(C5CC5)nc4)cccc3c2F)CS1(=O)=O` [Example 96]: 6.49 and 5.02.

With `CN1C(=N)N[C@](C)(c2sc3c(-c4cnc(-n5cccn5)nc4)nccc3c2Cl)CS1(=O)=O` [Example 97], the pKi in assay [1] was 7.21; at human autoBACE-2 it was 7.19.

Turning to `Cc1nonc1N1CCN(c2nccc3c(Cl)c([C@]4(C)CS(=O)(=O)N(C)C(=N)N4)sc23)CC1` [Example 120], at human autoBACE-2, the pKi is 7.02.
